Experimental data as given in patent US20260217708A1, “FUSED BENZAZEPINE DERIVATIVES FOR USE IN THE TREATMENT OF CANCER AND EPILEPSY” (UCB BIOPHARMA SRL, priority 2023, published 2026).

Columns and labels:
[1] = molecular target: T1, system Xc^− (Homo sapiens, UniProt Q9UPY5); test: [^14C]L-Cystine uptake assay; format: cell-based; design: endogenous in cells; host or cells: H4 cells; conditions: H4 cells, sodium-free HEPES buffer, 0.5 μM L-[14C]Cystine and 4.5 μM L-Cystine, 1 hour at 37° C.; read-out: pIC50 [^14C] L-Cystine uptake assay (converted)
T1 sequence (Q9UPY5 1-501): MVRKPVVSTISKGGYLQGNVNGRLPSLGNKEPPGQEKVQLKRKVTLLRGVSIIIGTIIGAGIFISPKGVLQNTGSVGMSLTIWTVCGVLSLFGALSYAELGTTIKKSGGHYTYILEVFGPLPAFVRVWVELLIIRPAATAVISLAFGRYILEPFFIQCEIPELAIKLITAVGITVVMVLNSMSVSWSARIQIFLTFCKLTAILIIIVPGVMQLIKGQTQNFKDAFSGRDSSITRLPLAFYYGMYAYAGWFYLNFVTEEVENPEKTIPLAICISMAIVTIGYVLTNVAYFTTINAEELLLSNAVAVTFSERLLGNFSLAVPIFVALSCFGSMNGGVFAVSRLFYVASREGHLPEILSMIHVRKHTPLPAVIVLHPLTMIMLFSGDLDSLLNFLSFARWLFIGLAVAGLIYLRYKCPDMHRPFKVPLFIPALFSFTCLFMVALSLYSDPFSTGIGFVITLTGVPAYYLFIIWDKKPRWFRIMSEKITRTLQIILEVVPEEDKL
T1 sequence (P08195 1-529 partner): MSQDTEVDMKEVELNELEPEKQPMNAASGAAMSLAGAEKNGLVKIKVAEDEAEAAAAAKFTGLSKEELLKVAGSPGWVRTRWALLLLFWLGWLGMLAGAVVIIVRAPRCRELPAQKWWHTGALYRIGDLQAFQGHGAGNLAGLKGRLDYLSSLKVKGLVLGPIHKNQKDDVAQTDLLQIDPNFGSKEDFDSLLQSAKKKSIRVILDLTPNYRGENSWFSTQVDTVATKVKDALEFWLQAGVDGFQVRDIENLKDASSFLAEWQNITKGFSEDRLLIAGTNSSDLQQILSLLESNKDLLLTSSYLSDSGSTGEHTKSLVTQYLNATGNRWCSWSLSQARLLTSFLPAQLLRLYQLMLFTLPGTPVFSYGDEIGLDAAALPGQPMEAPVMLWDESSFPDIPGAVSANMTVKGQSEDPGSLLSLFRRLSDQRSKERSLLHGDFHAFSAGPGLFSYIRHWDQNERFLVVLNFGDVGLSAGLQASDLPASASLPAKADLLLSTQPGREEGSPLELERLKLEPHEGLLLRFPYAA
Outline: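 Compound effect is given as pIC50, taken between controls of 1% DMSO and 50 μM Erastin. Human H4 cells were pretreated 15 min with compound in sodium-free buffer, then took up 0.5 μM [14C]cystine with 4.5 μM cold cystine for 1 hour at 37° C, read by scintillation proximity counting.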

[2] = molecular target: T1, system Xc^−; test: Cystine-induced glutamate release assay; format: cell-based; design: endogenous in cells; host or cells: H4 cells; conditions: H4 cells, sodium-free HEPES buffer, 50 μM L-Cystine, 2 hours, Amplex Red glutamate readout; read-out: pIC50 Cystine-induced glutamate release assay (converted)
Outline: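 IC50 (reported as pIC50) normalized to DMSO 1% and Erastin 50 μM controls, from Amplex Red fluorescence of glutamate exported into supernatant. H4 cells were washed into sodium-free buffer to exclude EAAT transport, then given compound with 50 μM L-cystine for 2 h in the incubator.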

SMILES	IC50 [1] [µM]	IC50 [2] [µM]
Cc1cc2c(cc1C)N(CC(=O)Nc1ccc(C(F)(F)F)cc1)C(=O)Cc1ccc(Cl)nc1-2 [#10, 2-(2-chloro-9,10-dimethyl-6-oxo-5H-pyrido[3,2-d][1]benzazepin-7-yl)-N-[4-(trifluoromethyl)phenyl]acetamide]	0.1 to 0.501	0.1 to 0.501
O=C(CN1C(=O)Cc2ccncc2-c2cnc(Cl)cc21)Nc1ccc(C(F)(F)F)cc1 [#11, 2-(5-chloro-9-oxo-4,8,14-triazatricyclo[9.4.0.0^2,7]pentadeca-1(11),2(7),3,5,12,14-hexaen-8-yl)-N-[4-(trifluoromethyl)phenyl]acetamide]	0.1 to 0.501	0.1 to 0.501
Cc1cc2c(cn1)-c1ncccc1CC(=O)N2CC(=O)Nc1ccc(C(F)(F)F)cc1 [#12, 2-(13-methyl-9-oxo-3,10,14-triazatricyclo[9.4.0.0^2,7]pentadeca-1(11),2(7),3,5,12,14-hexaen-10-yl)-N-[4-(trifluoromethyl)phenyl]acetamide]	0.1 to 0.501	0.1 to 0.501
O=C(CN1C(=O)Cc2ccccc2-c2cnc(Cl)cc21)Nc1ccc(C(F)(F)F)cc1 [#13, 2-(3-chloro-6-oxo-7H-pyrido[4,3-d][3]benzazepin-5-yl)-N-[4-(trifluoromethyl)phenyl]acetamide]	0.0398 to 0.1	0.1 to 0.501
Cc1cc2c(cn1)-c1ccccc1CC(=O)N2CC(=O)Nc1ccc(C(F)(F)F)cc1 [#14, 2-(3-methyl-6-oxo-7H-pyrido[4,3-d][3]benzazepin-5-yl)-N-[4-(trifluoromethyl)-phenyl]acetamide]	< 0.0158	0.1 to 0.501
Cc1cc2c(nc1C)-c1ccccc1CC(=O)N2CC(=O)Nc1ccc(C(F)(F)F)cc1 [#15, 2-(2,3-dimethyl-6-oxo-7H-pyrido[3,2-d][3]benzazepin-5-yl)-N-[4-(trifluoro-methyl)phenyl] acetamide]	0.0158 to 0.0398	0.1 to 0.501
O=C(CN1C(=O)Cc2ccccc2-c2ncc(F)cc21)Nc1ccc(C(F)(F)F)cc1 [#16, 2-(3-fluoro-6-oxo-7H-pyrido[3,2-d] [3]benzazepin-5-yl)-N-[4-(trifluoro-methyl)phenyl] acetamide]	0.1 to 0.501	0.1 to 0.501
O=C(CN1C(=O)Cc2ccccc2-c2cnccc21)Nc1ccc(C(F)(F)F)cc1 [#17, 2-(6-oxo-7H-pyrido [4,3-d][3]benzazepin-5-yl)-N-[4-(trifluoro-methyl)phenyl] acetamide]	0.1 to 0.501	0.1 to 0.501
Cc1ccc(NC(=O)CN2C(=O)Cc3cccnc3-c3cnc(Cl)cc32)cc1Cl [#18, N-(3-chloro-4-methyl-phenyl)-2-(13-chloro-9-oxo-3,10,14-triazatricyclo[9.4.0.0^2,7]pentadeca-1(11),2(7),3,5,12,14-hexaen-10-yl)acetamide]	0.1 to 0.501	0.1 to 0.501
O=C(CN1C(=O)Cc2cccnc2-c2cnc(Cl)cc21)Nc1ccc(Br)c(Cl)c1 [#19, N-(4-bromo-3-chloro-phenyl)-2-(13-chloro-9-oxo-3,10,14-triazatricyclo[9.4.0.0^2,7]pentadeca-1(11),2(7),3,5,12,14-hexaen-10-yl)acetamide]	0.1 to 0.501	0.1 to 0.501
Cc1cc2c(cn1)-c1cc(C)c(C)cc1N(CC(=O)Nc1ccc(C(F)(F)F)cc1)C(=O)C2 [#21, N-[4-(trifluoromethyl)phenyl]-2-(3,9,10-trimethyl-6-oxo-5H-pyrido[4,3-d][1]benzazepin-7-yl)acetamide]	0.0398 to 0.1	0.1 to 0.501
Cc1cc2c(cc1C)N(CC(=O)Nc1ccc(C(F)(F)F)cc1)C(=O)Cc1cccnc1-2 [#22, 2-(9,10-dimethyl-6-oxo-5H-pyrido[3,2-d][1]benzazepin-7-yl)-N-[4-(trifluoromethyl)phenyl]acetamide]	0.0398 to 0.1	0.1 to 0.501
Cc1cc2c(cc1C)N(CC(=O)Nc1ccc(C(F)(F)F)cc1)C(=O)Cc1ncccc1-2 [#23, 2-(9,10-dimethyl-6-oxo-5H-pyrido[2,3-d][1]benzazepin-7-yl)-N-[4-(trifluoromethyl)phenyl]acetamide]	0.0158 to 0.0398	0.0398 to 0.1
Cc1cc2c(cc1C)N(CC(=O)Nc1ccc(C(F)(F)F)cc1)C(=O)Cc1ccncc1-2 [#24, 2-(9,10-dimethyl-6-oxo-5H-pyrido[4,3-d][1]benzazepin-7-yl)-N-[4-(trifluoromethyl)phenyl]acetamide]	0.0158 to 0.0398	0.1 to 0.501
O=C(CN1C(=O)Cc2ncccc2-c2cnc(Cl)cc21)Nc1ccc(C(F)(F)F)cc1 [#25, 2-(5-chloro-9-oxo-4,8,12-triazatricyclo[9.4.0.0^2,7]pentadeca-1(11),2(7),3,5,12,14-hexaen-8-yl)-N-[4-(trifluoromethyl)phenyl]acetamide]	0.1 to 0.501	0.1 to 0.501
O=C(CN1C(=O)Cc2sccc2-c2cnc(Cl)cc21)Nc1ccc(C(F)(F)F)cc1 [#26, 2-(12-chloro-8-oxo-5-thia-9,13-diazatricyclo[8.4.0.0^2,6]tetradeca-1(10),2(6),3,11,13-pentaen-9-yl)-N-[4-(trifluoromethyl)phenyl]acetamide]	0.0398 to 0.1	0.1 to 0.501
Cc1cc2c(c(C)n1)-c1ccccc1CC(=O)N2CC(=O)Nc1ccc(C(F)(F)F)cc1 [#27, 2-(1,3-dimethyl-6-oxo-7H-pyrido[4,3-d][3]benzazepin-5-yl)-N-[4-(trifluoromethyl)phenyl]acetamide]	< 0.0158	0.0158 to 0.0398
Cc1nccc2c1-c1ccccc1CC(=O)N2CC(=O)Nc1ccc(C(F)(F)F)cc1 [#28, 2-(1-methyl-6-oxo-7H-pyrido[4,3-d] [3]benzazepin-5-yl)-N-[4-(trifluoro-methyl)phenyl] acetamide]	0.0398 to 0.1	0.0398 to 0.1
Cc1cc2c(cn1)N(CC(=O)Nc1ccc(C(F)(F)F)cc1)C(=O)Cc1ccccc1-2 [#29, 2-(2-methyl-6-oxo-7H-pyrido[3,4-d] [3]benzazepin-5-yl)-N-[4-(trifluoro-methyl)phenyl] acetamide]	0.1 to 0.501	0.1 to 0.501
Cc1cc2c(cn1)-c1cc(Cl)ccc1CC(=O)N2CC(=O)Nc1ccc(C(F)(F)F)cc1 [#30, 2-(10-chloro-3-methyl-6-oxo-7H-pyrido[4,3-d][3]benzazepin-5-yl)-N-[4-(trifluoro-methyl)phenyl] acetamide]	< 0.0158	0.1 to 0.501
Cc1cc2c(cn1)-c1cccc(Cl)c1CC(=O)N2CC(=O)Nc1ccc(C(F)(F)F)cc1 [#31, 2-(8-chloro-3-meth-yl-6-oxo-7H-pyrido [4,3-d][3]benzaze-pin-5-yl)-N-[4-(trifluoromethyl)-phenyl]acetamide]	0.0158 to 0.0398	0.1 to 0.501
Cc1cc2c(cn1)-c1c(Cl)cccc1CC(=O)N2CC(=O)Nc1ccc(C(F)(F)F)cc1 [#32, 2-(11-chloro-3-methyl-6-oxo-7H-pyrido[4,3-d][3]benzazepin-5-yl)-N-[4-(trifluoro-methyl)phenyl] acetamide]	0.1 to 0.501	0.1 to 0.501
Cc1cc2c(cn1)-c1cc(F)ccc1CC(=O)N2CC(=O)Nc1ccc(C(F)(F)F)cc1 [#33, 2-(10-fluoro-3-methyl-6-oxo-7H-pyrido[4,3-d][3]benzazepin-5-yl)-N-[4-(trifluoro-methyl)phenyl] acetamide]	0.0158 to 0.0398	0.0398 to 0.1
Cc1cc2c(cn1)-c1ccc(F)cc1CC(=O)N2CC(=O)Nc1ccc(C(F)(F)F)cc1 [#34, 2-(9-fluoro-3-methyl-6-oxo-7H-pyrido[4,3-d][3]benzazepin-5-yl)-N-[4-(trifluoro-methyl)phenyl] acetamide]	0.0398 to 0.1	0.1 to 0.501
Cc1cc2c(cn1)-c1cccc(F)c1CC(=O)N2CC(=O)Nc1ccc(C(F)(F)F)cc1 [#35, 2-(8-fluoro-3-methyl-6-oxo-7H-pyrido[4,3-d][3]benzazepin-5-yl)-N-[4-(trifluoro-methyl)phenyl] acetamide]	0.0158 to 0.0398	0.0398 to 0.1
